# What was measured:
# [1] = test system: T. brucei Lister427; assay: Trypanosome proliferation inhibition assay (SYBR Green, 48 h); format: cell-based; settings: Trypanosoma brucei; continuous exposure 48 h, 4 × 10^3 trypanosomes/mL
# Protocol: Trypanosome proliferation inhibition assays
# T. b. Lister 427 or T. b. AnTat1.1 were seeded at 4 × 10^3 cells/mL or 2 × 10^3 cells/mL (in 50 μL culture medium), respectively, into 384-well black plate (Greiner; Frickenhausen, Germany) and treated with serial dilutions of each compound in duplicate. Plates were incubated for 48 h at 37 °C and 5% CO2. […] Fluorescence in lysates was quantitated with a fluorometer (Fluoroskan Ascent Microplate Fluorometer, Thermo Scientific) (100 ms; ex: 485 nm, em: 538 nm). Each experiment was performed in triplicate.
# [2] = test system: T. brucei Lister427; assay: Delayed trypanocidal assay (6 h exposure, wash-off); format: cell-based, Trypanosoma brucei; settings: for DTC25 (Figure 1) / DTC50 (Figure 1) / DTC90 (Figure 1): 5 × 10^5/mL, 6 h, wash, 24 h drug-free, unit not given; for DTC50 (concentration causing 50% cidality): 6-h treatment and wash-off
# Protocol: Trypanosomes were washed, enumerated with a Coulter Counter, and transferred into a drug-free HMI-9 medium for 24 h in a 24-well plate (1 × 10^5 cells/mL). After 24 h, cells were enumerated with a Coulter counter (see flow-chart). Data obtained were analyzed using GraphPad Prism to determine DTC25, DTC50, and DTC90 values.
# Delayed trypanocidal assay
# Mid-logarithmic growth-phase T. b. Lister427 were inoculated into HMI-9 medium (5 × 10^5 cell/mL). Cells were incubated with either 0.1% DMSO (vehicle) or serial dilutions of drug in 24-well plates for 6 h at 37 °C/5% CO2, following which trypanosomes were pelleted (3,000 g, 5 min), rinsed with drug-free HMI-9 medium, and cells enumerated with a Coulter counter. Trypanosomes were then inoculated at 1 × 10^5 cells/mL in 24-well-plates or 384-well plates and cultured for 24 h, after which trypanosomes were checked for viability with a hemocytometer and enumerated with a Coulter counter. Each experiment was performed thrice, and non-linear regression graphs plotted with GraphPad Prism were used to obtain DTC50 values ([Bachovchin et al., 2019]).
# [3] = Caco-2 bidirectional permeability assay; format: in vitro ADME; settings: human
# Protocol: Caco-2 bidirectional permeability assay.
# Caco-2 bidirectional permeability assay was performed at Absorption Systems (Exton, Pennsylvania). Briefly, monolayers of Caco-2 cells (clone C2BBe1) were grown to confluence on collagen-coated, microporous membranes in 12-well plates. Permeability assay buffer (Hanks’ balanced salt solution containing 10 mM HEPES and 15 mM glucose, pH 7.4) in the receiver chamber contained 1% bovine serum albumin. Compounds dissolved in assay buffer (5 μM) were added either on the apical (A) or the basolateral side (B) and incubated at 37 °C with 5% CO2 in a humidified incubator. Samples were collected from donor and receiver chambers at 120 min. Each determination was performed in duplicate. The flux of lucifer yellow dye was measured post-experimentally for each monolayer to ensure that no monolayers were damaged during the flux period with compounds. Drug amounts were determined by LC-MS/MS. Apparent permeability (Papp) and percent recovery were determined as per [Hubatsch et al. (2007)]. The efflux ratio was calculated as Papp (B-to-A)/Papp (A-to-B).
# [4] = in vivo; settings: both sexes, mouse, oral, Swiss Webster mice, 10 consecutive days, read-out: Repeated maximum tolerated dose (rMTD)
# Protocol: Maximum tolerated dose of compounds in mice.
# To determine a single maximum tolerated dose (sMTD), male and female Swiss Webster mice were first given a single 50 mg/kg dose of compound formulated in N-methyl-2-pyrrolidone (10% v/v) and 0.2% hydroxypropyl methylcellulose (90% v/v). Mice were monitored daily for up to 7 days post-administration for overall condition using a Total Condition Scoring (TCS) system (Supplementary Table S1) and body weight changes. If greater than 20% body weight loss was recorded, the dose was lowered in two-fold amounts in subsequent tests. […] When no toxicity was observed, sMTD values were utilized to determine the repetitive maximum tolerated dose (rMTD). Male and female Swiss-Webster mice were treated with sMTD for 10 consecutive days. […] If adverse effects were recorded, the daily doses were reduced two-fold in follow-up work. At the end of the study, mice were euthanized by CO2 asphyxiation followed by cervical dislocation.
# [5] = test system: endocytosis of transferrin (Tf) in Trypanosoma brucei; assay: Endocytosis of transferrin (flow cytometry); format: cell-based; settings: for Effect on endocytosis of Tf / Endocytosis Transferrin: DTC25; for Increase of Tf endocytosis compared to DMSO: DTC25, 6 h, not statistically significant; for Endocytosis Transferrin: Table S3
# Protocol: Cells were washed and resuspended in serum-free medium. Trypanosomes were incubated with fluorescent endocytosis ligands transferrin (Tf) or bovine serum albumin (BSA) for 30 min (37 °C). A flow cytometer was used to detect fluorescence intensity per cell. Propidium iodide (PI) was used to stain and gate out non-viable cells. Histograms present fluorescence intensity of Tf-AF488 (A) or BSA-AF647 (B) for every cell (n > 10,000 for each cargo) in DMSO or drug-treated samples. Points on the scatter plot represent mean fluorescence intensities of Tf (C) or BSA (D) from three biological replicates (calculated with FlowJo). Bars indicate mean ± SD. Student’s t-test was used to evaluate statistical significance of differences in mean intensity of endocytosed ligand in DMSO-treated sample compared to curaxin-treated samples.
# Curaxin or DMSO-treated trypanosomes (5 × 10^5/mL) were washed with serum-free HMI-9 medium (500 uL). Trypanosomes were resuspended in serum-free HMI-9 medium (100 μL) supplemented with either transferrin–[…] conjugate (50 μg, Invitrogen, Eugene, OR) or BSA–AlexaFluor647 conjugate (50 μg, Invitrogen, Eugene, OR) for 30 min at 37 °C, 5% CO2. Cells were transferred to an ice-water bath, washed with cold PBS/G at 4 °C (3,000 g for 5 min), resuspended in PBS/G (500 μL) containing propidium iodide (3 μM), and analyzed on a flow cytometer (Beckman Coulter CytoFLEX S). FlowJo software (FlowJo, LLC) was used to gate trypanosomes based on size and shape (forward and side scatter features), and fluorescence intensity of endocytosed protein was measured in viable cells (negative for propidium iodide uptake). FlowJo software was used to determine the mean fluorescence intensity of each cargo in trypanosomes (at least 10,000 events). Data from three independent biological experiments were analyzed with a two-tailed Student’s t-test with unequal variance to determine the possible statistical significance of differences in means of fluorescence intensities of endocytosed cargo.
# [6] = 6 h treatment at 5 × 10^5/mL, wash-off, survival tracked 24 h
# [7] = Caco-2, pH 7.4, Caco-2, direction A-to-B
# [8] = Caco-2, pH 7.4, Caco-2, direction B-to-A
SMILES,EC50 [1],DTC25 (Figure 1) [2],DTC50 (Figure 1) [2],DTC90 (Figure 1) [2],DTC50 (concentration causing 50% cidality) [2],"DTC25 T. brucei Lister427 [2, 6]","DTC50 T. brucei Lister427 [2, 6]","DTC90 T. brucei Lister427 [2, 6]","Papp at 120 min, 5 μM [3, 7]","recovery at 120 min, 5 μM [3, 7]","Papp at 120 min, 5 μM [3, 8]","recovery at 120 min, 5 μM [3, 8]",MTD at 10 days [4],Fold increase of Tf endocytosis compared to DMSO [5],Effect on endocytosis of Tf [5],Increase of Tf endocytosis compared to DMSO [5],Endocytosis Transferrin [5]
"CC(=O)c1cc2c3cc(C(C)=O)c(O)cc3n(CCNC(C)C)c2cc1O [CBL0187, 1-[6-acetyl-2,7-dihydroxy-9-[2-(isopropylamino)ethyl]carbazol-3-yl]ethanone]",8.9 nM,54,110,550,0.11 µM,54 nM,110 nM,550 nM,14 ± 1.91 ×10⁻⁶ cm/s,47%,21.7 ± 3.39 ×10⁻⁶ cm/s,64%,50 mg/kg,1.31,had no effect on the pathway,30.9%,Activated
"CC(=O)c1cc2c3cc(C(C)=O)c(O)cc3n(CCCN(C)C)c2cc1O [CBL0174, 1-[6-acetyl-9-[3-(dimethylamino)propyl]-2,7-dihydroxy-carbazol-3-yl]ethanone]",21 nM,48,110,600,0.11 µM,,110 nM,600 nM,17.8 ± 0.35 ×10⁻⁶ cm/s,60%,21.9 ± 3.39 ×10⁻⁶ cm/s,86%,60 mg/kg,1.39,did not promote endocytosis of Tf,39%,Activated

# Reference: article PMC11927960, “Multiparameter ranking of carbazoles for anti-trypanosome lead discovery” (Frontiers in drug discovery, 2024)
